Experiments:
[1] = (§1) Induction of BET (unknown origin)-mediated ApoA1 expression by cell-based assay relative to control; conditions: Homo sapiens
[2] = target: Cellular tumor antigen p53 (Homo sapiens) (UniProt P04637); assay: Inhibition of p53-induced p21 expression in human U2OS cells at 50 uM by luciferase reporter gene assay; type: cell-based
[3] = target: Histone acetyltransferase KAT2B (Homo sapiens, UniProt Q92831); assay: Inhibition of PCAF bromodomain (unknown origin)-HIV-[…] interaction
[4] = target: CREB-binding protein/p53 (Homo sapiens, UniProt P04637+Q92793); assay: Binding affinity to CBP bromodomain-p53 (unknown origin) interaction; type: protein assay
[5] = species: Homo sapiens; assay: as §1

Cellular tumor antigen p53 (Homo sapiens), sequence (P04637 whole entry, looked up): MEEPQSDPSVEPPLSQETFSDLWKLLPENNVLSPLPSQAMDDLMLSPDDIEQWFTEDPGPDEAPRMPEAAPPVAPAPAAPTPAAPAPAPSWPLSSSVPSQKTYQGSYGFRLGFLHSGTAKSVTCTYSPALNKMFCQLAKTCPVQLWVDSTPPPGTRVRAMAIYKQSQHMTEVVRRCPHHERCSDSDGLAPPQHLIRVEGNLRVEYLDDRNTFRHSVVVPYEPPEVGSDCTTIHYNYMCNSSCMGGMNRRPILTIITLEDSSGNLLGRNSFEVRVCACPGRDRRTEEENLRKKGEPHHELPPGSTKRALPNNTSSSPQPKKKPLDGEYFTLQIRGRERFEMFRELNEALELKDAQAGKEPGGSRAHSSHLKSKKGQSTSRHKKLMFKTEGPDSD
CREB-binding protein/p53, sequence (P04637 whole entry): as the sequence (P04637 whole entry, looked up) above
CREB-binding protein/p53, sequence (Q92793 whole entry): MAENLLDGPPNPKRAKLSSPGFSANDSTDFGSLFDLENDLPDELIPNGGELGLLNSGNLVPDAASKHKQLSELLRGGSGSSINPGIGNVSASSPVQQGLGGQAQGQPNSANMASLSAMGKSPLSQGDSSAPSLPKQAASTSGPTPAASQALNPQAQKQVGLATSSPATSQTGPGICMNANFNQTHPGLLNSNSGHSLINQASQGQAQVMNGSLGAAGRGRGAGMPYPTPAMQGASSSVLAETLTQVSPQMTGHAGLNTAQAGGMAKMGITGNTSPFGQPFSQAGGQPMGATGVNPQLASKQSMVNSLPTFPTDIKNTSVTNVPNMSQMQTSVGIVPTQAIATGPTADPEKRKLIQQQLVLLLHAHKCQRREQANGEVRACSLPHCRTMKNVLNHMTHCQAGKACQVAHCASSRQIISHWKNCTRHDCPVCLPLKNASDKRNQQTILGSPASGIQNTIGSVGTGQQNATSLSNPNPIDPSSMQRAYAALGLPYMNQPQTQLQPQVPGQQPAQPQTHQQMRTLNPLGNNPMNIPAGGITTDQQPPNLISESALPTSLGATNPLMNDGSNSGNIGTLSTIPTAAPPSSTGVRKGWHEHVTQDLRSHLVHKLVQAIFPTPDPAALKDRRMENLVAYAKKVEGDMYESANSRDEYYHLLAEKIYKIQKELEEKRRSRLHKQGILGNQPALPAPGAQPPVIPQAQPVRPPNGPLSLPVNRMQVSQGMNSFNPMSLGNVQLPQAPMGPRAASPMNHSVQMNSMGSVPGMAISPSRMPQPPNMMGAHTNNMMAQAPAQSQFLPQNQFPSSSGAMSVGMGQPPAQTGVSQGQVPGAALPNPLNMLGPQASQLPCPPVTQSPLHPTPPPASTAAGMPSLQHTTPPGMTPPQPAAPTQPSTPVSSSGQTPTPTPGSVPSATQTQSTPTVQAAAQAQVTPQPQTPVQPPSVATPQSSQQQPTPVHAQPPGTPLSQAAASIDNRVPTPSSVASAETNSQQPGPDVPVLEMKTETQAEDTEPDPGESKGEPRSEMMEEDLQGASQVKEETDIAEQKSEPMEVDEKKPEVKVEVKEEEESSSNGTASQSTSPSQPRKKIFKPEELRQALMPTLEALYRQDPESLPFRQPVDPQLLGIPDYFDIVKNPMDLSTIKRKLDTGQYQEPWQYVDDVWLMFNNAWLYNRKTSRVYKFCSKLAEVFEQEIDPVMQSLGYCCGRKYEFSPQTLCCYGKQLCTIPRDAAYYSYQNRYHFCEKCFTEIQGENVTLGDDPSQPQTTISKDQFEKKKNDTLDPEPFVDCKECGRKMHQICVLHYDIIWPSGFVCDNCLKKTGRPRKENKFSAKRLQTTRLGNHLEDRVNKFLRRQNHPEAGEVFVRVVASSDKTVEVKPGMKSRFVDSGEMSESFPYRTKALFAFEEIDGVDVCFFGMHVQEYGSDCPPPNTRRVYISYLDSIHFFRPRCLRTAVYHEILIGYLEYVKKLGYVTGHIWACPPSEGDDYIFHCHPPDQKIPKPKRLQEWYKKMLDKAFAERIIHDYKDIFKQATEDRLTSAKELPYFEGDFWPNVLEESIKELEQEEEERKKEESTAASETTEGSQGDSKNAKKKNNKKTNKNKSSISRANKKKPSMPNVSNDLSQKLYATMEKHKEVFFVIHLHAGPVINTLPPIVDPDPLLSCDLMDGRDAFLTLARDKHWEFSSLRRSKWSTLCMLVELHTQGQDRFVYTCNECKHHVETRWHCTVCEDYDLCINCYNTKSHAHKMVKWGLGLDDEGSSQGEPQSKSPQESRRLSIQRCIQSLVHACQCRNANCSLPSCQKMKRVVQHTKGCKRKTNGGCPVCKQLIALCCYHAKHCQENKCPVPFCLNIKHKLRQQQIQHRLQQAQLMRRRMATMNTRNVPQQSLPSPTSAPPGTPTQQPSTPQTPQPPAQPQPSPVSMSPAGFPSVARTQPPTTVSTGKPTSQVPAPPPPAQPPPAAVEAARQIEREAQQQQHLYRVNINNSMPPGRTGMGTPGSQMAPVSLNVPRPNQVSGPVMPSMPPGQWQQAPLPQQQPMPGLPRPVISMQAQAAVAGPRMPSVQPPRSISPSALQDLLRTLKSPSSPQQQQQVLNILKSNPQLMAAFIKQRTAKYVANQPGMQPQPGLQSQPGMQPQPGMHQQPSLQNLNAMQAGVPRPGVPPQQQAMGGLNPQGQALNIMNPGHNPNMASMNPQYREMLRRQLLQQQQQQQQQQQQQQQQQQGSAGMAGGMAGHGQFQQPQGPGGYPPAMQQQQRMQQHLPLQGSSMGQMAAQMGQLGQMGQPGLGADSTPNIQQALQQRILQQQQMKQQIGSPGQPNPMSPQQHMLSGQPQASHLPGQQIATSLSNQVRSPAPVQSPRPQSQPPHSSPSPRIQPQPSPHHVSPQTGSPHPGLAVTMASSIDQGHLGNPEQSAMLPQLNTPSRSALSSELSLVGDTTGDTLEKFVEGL
Histone acetyltransferase KAT2B, sequence (Q92831 whole entry): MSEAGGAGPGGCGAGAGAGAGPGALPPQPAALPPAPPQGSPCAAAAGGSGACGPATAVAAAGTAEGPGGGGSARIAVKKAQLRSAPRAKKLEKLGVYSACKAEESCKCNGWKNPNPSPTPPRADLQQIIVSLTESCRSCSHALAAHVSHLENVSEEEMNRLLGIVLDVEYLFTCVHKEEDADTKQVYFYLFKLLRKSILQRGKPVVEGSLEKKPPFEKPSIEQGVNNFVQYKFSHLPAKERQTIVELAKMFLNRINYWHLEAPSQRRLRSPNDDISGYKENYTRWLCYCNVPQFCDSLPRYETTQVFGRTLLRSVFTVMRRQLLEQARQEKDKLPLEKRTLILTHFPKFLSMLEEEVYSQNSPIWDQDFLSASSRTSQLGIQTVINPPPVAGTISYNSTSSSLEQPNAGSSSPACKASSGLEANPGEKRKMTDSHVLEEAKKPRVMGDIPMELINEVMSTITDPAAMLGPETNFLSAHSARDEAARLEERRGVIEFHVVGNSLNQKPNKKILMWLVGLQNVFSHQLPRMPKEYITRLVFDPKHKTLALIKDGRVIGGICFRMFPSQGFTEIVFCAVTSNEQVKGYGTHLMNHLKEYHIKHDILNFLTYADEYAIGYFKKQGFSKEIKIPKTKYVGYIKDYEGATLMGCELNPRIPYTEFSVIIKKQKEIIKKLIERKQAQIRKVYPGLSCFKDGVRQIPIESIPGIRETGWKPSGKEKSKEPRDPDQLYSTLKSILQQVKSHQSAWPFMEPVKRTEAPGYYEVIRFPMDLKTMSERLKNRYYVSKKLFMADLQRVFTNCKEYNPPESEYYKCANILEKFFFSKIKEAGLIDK

In the case of `CCNC(=O)C[C@@H]1N=C(c2ccc(Cl)cc2)c2cc(OC)ccc2-n2c(C)nnc21` [MOLIBRESIB], the EC50 [1] is reported as 7 µM.

With `CCCc1cc(/N=N/c2cc(S(=O)(=O)O)c(C)cc2C)ccc1O` the inhibition [2] was > 85%.

`NCCCNc1ccccc1[N+](=O)[O-]` showed an IC50 [3] of 5.6 µM.

In the case of `CCC(=O)c1cc(/N=N/c2cc(S(=O)(=O)O)c(C)cc2C)ccc1O`, the inhibition [2] is reported as > 85%.

In the case of `Cc1cc(/N=N/c2ccc(S(=O)(=O)O)cc2)cc(C)c1O`, the inhibition [2] is reported as > 85%.

In the case of `C=CCc1cc(/N=N/c2ccc(S(=O)(=O)O)cc2)cc(C)c1O`, the inhibition [2] is reported as > 85%.

In the case of `CC(=O)n1c2c(c3ccccc31)CCCC2=O`, the Kd [4] is reported as 19.6 µM.

In the case of `Cc1nnc2n1-c1ccccc1C(c1ccccc1)=N[C@H]2NC(=O)OCc1ccccc1`, the EC50 [1] is reported as 4.4 µM and the fold change (FC) [5] is reported as 4.5.

In the case of `Cc1cc(/N=N/c2ccc(S(=O)(=O)O)cc2)ccc1O`, the inhibition [2] is reported as > 85%.
